# Assay results reported in US11358953B2, “Functionalized peptides as antiviral agents” (ENANTA PHARMACEUTICALS, INC., priority 2020, dated 2022).
# Biological target: SARS-CoV-2 3CL-protease (Severe acute respiratory syndrome coronavirus 2 (2019-nCoV) (SARS-CoV-2), UniProt P0DTD1)
# Test: SARS-CoV-2 3C-like (3CL) protease fluorescence assay (FRET)
# Type: biochemical
# Conditions: recombinant SARS-CoV-2 3CL-protease 10 nM, 30 min preincubation at RT, substrate 40 μM, duplicate
row,SMILES,IC50
1,"COc1cccc2[nH]c(C(=O)N3C[C@@H]4CCC[C@@H]4[C@H]3C(=O)N[C@@H](C[C@@H]3CCNC3=O)C(=O)C(=O)NC3CCCCC3)cc12 [Ex9, (1S,3aR,6aS)—N—((S)-4-(cyclohexylamino)-3,4-dioxo-1-((S)-2-oxopyrrolidin-3-yl)butan-2-yl)-2-(4-methoxy-1H-indole-2-carbonyl)octahydrocyclopenta[c]pyrrole-1-carboxamide]",< 100 nM
2,"O=C(NCc1ccccc1)C(=O)[C@H](C[C@@H]1CCNC1=O)NC(=O)[C@@H]1[C@H]2CCC[C@H]2CN1C(=O)c1cc2c(OC(F)F)cccc2[nH]1 [Ex15, (1S,3aR,6aS)—N—((S)-4-(benzylamino)-3,4-dioxo-1-((S)-2-oxopyrrolidin-3-yl)butan-2-yl)-2-(4-(difluoromethoxy)-1H-indole-2-carbonyl)octahydrocyclopenta[c]pyrrole-1-carboxamide]",< 100 nM
3,"CC(C)(C)[C@H](NC(=O)C1CCCCC1)C(=O)N1C[C@H]2[C@@H]([C@H]1C(=O)N[C@H](C#N)C[C@@H]1CCNC1=O)C2(C)C [Ex25, (1R,2S,5S)—N—((S)-1-cyano-2-((S)-2-oxopyrrolidin-3-yl)ethyl)-3-((S)-2-(cyclohexanecarboxamido)-3,3-dimethylbutanoyl)-6,6-dimethyl-3-azabicyclo[3.1.0]hexane-2-carboxamide]",< 100 nM
4,"CC1(C)[C@@H]2[C@@H](C(=O)N[C@H](C#N)C[C@@H]3CCNC3=O)N(C(=O)c3cc4cc(F)cc(F)c4[nH]3)C[C@@H]21 [Ex16, (1R,2S,5S)—N—((S)-1-cyano-2-((S)-2-oxopyrrolidin-3-yl)ethyl)-3-(5,7-difluoro-1H-indole-2-carbonyl)-6,6-dimethyl-3-azabicyclo[3.1.0]hexane-2-carboxamide]",100 to 1000 nM
5,"CC(C)(C)[C@H](NC(=O)Cc1ccccc1)C(=O)N1C[C@H]2[C@@H]([C@H]1C(=O)N[C@H](C#N)C[C@@H]1CCNC1=O)C2(C)C [Ex24, (1R,2S,5S)—N—((S)-1-cyano-2-((S)-2-oxopyrrolidin-3-yl)ethyl)-3-((S)-3,3-dimethyl-2-(2-phenylacetamido)butanoyl)-6,6-dimethyl-3-azabicyclo[3.1.0]hexane-2-carboxamide]",< 100 nM
6,"N#C[C@H](C[C@@H]1CCNC1=O)NC(=O)[C@@H]1CCCN1C(=O)c1cc2c(OC(F)F)cccc2[nH]1 [Ex12, (S)—N—((S)-1-cyano-2-((S)-2-oxopyrrolidin-3-yl)ethyl)-1-(4-(difluoromethoxy)-1H-indole-2-carbonyl)pyrrolidine-2-carboxamide]",> 1000 nM
7,"CC(C)(C)C(=O)N[C@H](C(=O)N1C[C@H]2[C@@H]([C@H]1C(=O)N[C@H](C#N)C[C@@H]1CCNC1=O)C2(C)C)C(C)(C)C [Ex28, (1R,2S,5S)—N—((S)-1-cyano-2-((S)-2-oxopyrrolidin-3-yl)ethyl)-3-((S)-3,3-dimethyl-2-pivalamidobutanoyl)-6,6-dimethyl-3-azabicyclo[3.1.0]hexane-2-carboxamide]",< 100 nM
8,"COc1cccc2[nH]c(C(=O)N3C[C@@H]4CCC[C@@H]4[C@H]3C(=O)N[C@H](C=O)C[C@@H]3CCNC3=O)cc12 [Ex6, (1S,3aR,6aS)-2-(4-methoxy-1H-indole-2-carbonyl)-N—((S)-1-oxo-3-((S)-2-oxopyrrolidin-3-yl)propan-2-yl)octahydrocyclopenta[c]pyrrole-1-carboxamide]",< 100 nM
9,"N#C[C@H](C[C@@H]1CCNC1=O)NC(=O)[C@@H]1[C@H]2CCC[C@H]2CN1C(=O)c1cc2c(Cl)cccc2[nH]1 [Ex14, (1S,3aR,6aS)-2-(4-chloro-1H-indole-2-carbonyl)-N—((S)-1-cyano-2-((S)-2-oxopyrrolidin-3-yl)ethyl)octahydrocyclopenta[c]pyrrole-1-carboxamide]",100 to 1000 nM
10,"COc1cccc2[nH]c(C(=O)N3C[C@@H]4CCC[C@@H]4[C@H]3C(=O)N[C@@H](C[C@@H]3CCNC3=O)C(=O)COC(=O)c3c(Cl)cccc3Cl)cc12 [Ex2, (S)-3-((1S,3aR,6aS)-2-(4-methoxy-1H-indole-2-carbonyl)octahydrocyclopenta[c]pyrrole-1-carboxamido)-2-oxo-4-((S)-2-oxopyrrolidin-3-yl)butyl 2,6-dichlorobenzoate]",< 100 nM
11,"CC1(C)[C@@H]2[C@@H](C(=O)N[C@H](C#N)C[C@@H]3CCNC3=O)N(C(=O)c3cc4c(F)ccc(F)c4[nH]3)C[C@@H]21 [Ex20, (1R,2S,5S)—N—((S)-1-cyano-2-((S)-2-oxopyrrolidin-3-yl)ethyl)-3-(4,7-difluoro-1H-indole-2-carbonyl)-6,6-dimethyl-3-azabicyclo[3.1.0]hexane-2-carboxamide]",100 to 1000 nM
12,"N#C[C@H](C[C@@H]1CCNC1=O)NC(=O)[C@@H]1[C@H]2CCC[C@H]2CN1C(=O)c1cc2c(F)cc(F)cc2[nH]1 [Ex13, (1S,3aR,6aS)—N—((S)-1-cyano-2-((S)-2-oxopyrrolidin-3-yl)ethyl)-2-(4,6-difluoro-1H-indole-2-carbonyl)octahydrocyclopenta[c]pyrrole-1-carboxamide]",100 to 1000 nM
13,"CC1(C)[C@@H]2[C@@H](C(=O)N[C@H](C#N)C[C@@H]3CCNC3=O)N(C(=O)c3cc4c(Cl)cccc4[nH]3)C[C@@H]21 [Ex21, (1R,2S,5S)-3-(4-chloro-1H-indole-2-carbonyl)-N—((S)-1-cyano-2-((S)-2-oxopyrrolidin-3-yl)ethyl)-6,6-dimethyl-3-azabicyclo[3.1.0]hexane-2-carboxamide]",100 to 1000 nM
14,"CC1(C)C2CN(C(=O)c3cc4c(OC(F)F)cccc4[nH]3)[C@H](C(=O)N[C@H](C#N)C[C@@H]3CCNC3=O)C21 (stereo in doubt) [Ex11, (1S,2S,5R)—N—((S)-1-cyano-2-((S)-2-oxopyrrolidin-3-yl)ethyl)-3-(4-(difluoromethoxy)-1H-indole-2-carbonyl)-6,6-dimethyl-3-azabicyclo[3.1.0]hexane-2-carboxamide]",100 to 1000 nM
15,"CC1(C)[C@@H]2[C@@H](C(=O)N[C@H](C#N)C[C@@H]3CCNC3=O)N(C(=O)c3cc4c(F)cc(F)cc4[nH]3)C[C@@H]21 [Ex18, (1R,2S,5S)—N—((S)-1-cyano-2-((S)-2-oxopyrrolidin-3-yl)ethyl)-3-(4,6-difluoro-1H-indole-2-carbonyl)-6,6-dimethyl-3-azabicyclo[3.1.0]hexane-2-carboxamide]",100 to 1000 nM
16,"O=C[C@H](C[C@@H]1CCNC1=O)NC(=O)[C@@H]1[C@H]2CCC[C@H]2CN1C(=O)c1cc2c(OC(F)F)cccc2[nH]1 [Ex5, (1S,3aR,6aS)-2-(4-(difluoromethoxy)-1H-indole-2-carbonyl)-N—((S)-1-oxo-3-((S)-2-oxopyrrolidin-3-yl)propan-2-yl)octahydrocyclopenta[c]pyrrole-1-carboxamide]",< 100 nM
17,"CCC(=O)N[C@H](C(=O)N1C[C@H]2[C@@H]([C@H]1C(=O)N[C@H](C#N)C[C@@H]1CCNC1=O)C2(C)C)C(C)(C)C [Ex26, (1R,2S,5S)—N—((S)-1-cyano-2-((S)-2-oxopyrrolidin-3-yl)ethyl)-3-((S)-3,3-dimethyl-2-propionamidobutanoyl)-6,6-dimethyl-3-azabicyclo[3.1.0]hexane-2-carboxamide]",< 100 nM
18,"CC(=O)N[C@H](C(=O)N1C[C@H]2[C@@H]([C@H]1C(=O)N[C@H](C#N)C[C@@H]1CCNC1=O)C2(C)C)C(C)(C)C [Ex29, (1R,2S,5S)-3-((S)-2-acetamido-3,3-dimethylbutanoyl)-N—((S)-1-cyano-2-((S)-2-oxopyrrolidin-3-yl)ethyl)-6,6-dimethyl-3-azabicyclo[3.1.0]hexane-2-carboxamide]",< 100 nM
